According to ChEMBL document CHEMBL1201862, “PubChem BioAssay data set” (2004):
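Assay format: 96-well plates, 48-hour exposure. At the GI50, growth is halved.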 Active and inactive are the calls of the source. No stated cut-off is given here; in the data, active = GI50 up to about 1.1 µM and inactive = higher.

Key:
Assay in all cases: DTP human tumour cell line panel, 48 h
[1] = system: UACC-62
[2] = system: Malme-3M
[3] = system: CAKI-1
[4] = system: NCI-H23
[5] = system: HOP-62
[6] = system: SK-MEL-5
[7] = system: RPMI-8226
[8] = system: SK-MEL-28
[9] = system: SF-268
[10] = system: SF-295
[11] = system: HL-60
[12] = system: SW-620
[13] = system: HCT-116
[14] = system: SR
[15] = system: RXF 393
[16] = system: HCC 2998

Measured: GI50

Cc1cccc(C2SCc3nc4ccccc4n32)c1 (configuration not stated)
inactive: [1] 27.8 µM | [2] 14.7 µM | [3] 31 µM | [4] > 10 µM | [5] 23.6 µM | [6] 14.3 µM | [7] 13.9 µM | [8] 26.1 µM | [9] 36.7 µM | [10] 30.8 µM | [11] 6.78 µM | [12] 39.2 µM | [13] 17.7 µM | [14] 17.1 µM | [15] 14.9 µM

COC(=O)CCC1CCc2c(OC)ccc(O)c2C1=O (configuration not stated)
inactive: [1] > 100 µM | [2] > 100 µM | [4] > 100 µM | [5] > 100 µM | [6] > 100 µM | [7] > 100 µM | [8] > 100 µM | [16] > 100 µM | [9] > 100 µM | [10] > 100 µM | [11] > 100 µM | [12] > 100 µM | [13] > 100 µM | [14] > 100 µM | [15] > 100 µM

CC1=CCC2(C#N)CCC1C2=O (configuration not stated)
inactive: [1] > 100 µM | [2] > 100 µM | [3] > 100 µM | [4] > 100 µM | [5] > 100 µM | [6] > 100 µM | [7] > 100 µM | [9] > 100 µM | [10] > 100 µM | [11] > 100 µM | [12] > 100 µM | [13] > 100 µM | [14] > 100 µM

CCC1(Cl)C(=O)NC(=O)N(C2CC(O)C(CO)O2)C1N=[N+]=[N-] (configuration not stated)
inactive: [1] > 100 µM | [2] > 100 µM | [3] > 100 µM | [4] 65.3 µM | [5] > 100 µM | [6] > 100 µM | [7] > 100 µM | [8] > 100 µM | [16] > 100 µM | [9] > 100 µM | [10] > 100 µM | [11] > 100 µM | [12] > 100 µM | [15] 41.2 µM

Nc1nc2ncn(CC(O)COC(=O)c3ccccc3)c2c(=O)[nH]1 (configuration not stated)
inactive: [1] > 100 µM | [2] > 100 µM | [3] > 100 µM | [4] > 100 µM | [5] > 100 µM | [6] > 100 µM | [7] > 100 µM | [8] > 100 µM | [9] > 100 µM | [10] > 100 µM | [11] > 100 µM | [12] > 100 µM | [13] > 100 µM | [14] > 100 µM | [15] > 100 µM

O=Cc1cc(O)c(O)c(O)c1-c1c(C=O)cc(O)c(O)c1O
inactive: [1] > 100 µM | [2] > 100 µM | [3] > 100 µM | [4] > 100 µM | [5] > 100 µM | [6] > 100 µM | [7] 64.3 µM | [8] > 100 µM | [16] > 100 µM | [9] > 100 µM | [10] > 100 µM | [11] > 100 µM | [12] > 100 µM | [13] > 100 µM | [14] 82.8 µM

CC/C(CC(=O)CCC(=O)Nc1c(C)cccc1C)=N\NC(=O)NN
inactive: [1] > 100 µM | [2] > 100 µM | [4] > 100 µM | [6] > 100 µM | [8] > 10 µM | [16] > 100 µM | [9] > 100 µM | [10] > 100 µM | [11] > 100 µM | [12] > 100 µM | [13] > 100 µM | [14] > 100 µM | [15] > 100 µM

CCOC(=O)CN(Cc1ccccc1)Cc1c(C(=O)c2ccccc2)c2ccccc2n1C(=O)c1ccccc1
inactive: [1] > 100 µM | [2] > 100 µM | [3] > 100 µM | [4] > 100 µM | [5] > 100 µM | [6] 96.8 µM | [7] 17.9 µM | [8] > 100 µM | [16] > 100 µM | [9] > 100 µM | [10] > 100 µM | [12] > 100 µM | [13] 32.7 µM | [14] 41 µM | [15] > 10 µM

CN(C)C(=O)Nc1c([N+](=O)[O-])cc(C(F)(F)F)cc1[N+](=O)[O-]
inactive: [1] 46.9 µM | [3] > 100 µM | [4] 27.7 µM | [5] > 100 µM | [6] 17.2 µM | [7] 41.1 µM | [8] > 100 µM | [9] > 100 µM | [10] 63.4 µM | [11] 19.4 µM | [12] 32.7 µM | [13] 24.6 µM | [14] 58.7 µM | [15] 8.45 µM

COc1ccc([C@H]2[C@@H]3CCc4ccccc4C3=NN2C(N)=S)cc1OC
inactive: [1] 34 µM | [2] 85.3 µM | [4] 34.6 µM | [5] 97.7 µM | [7] 37.9 µM | [8] 78 µM | [16] > 100 µM | [9] 85.9 µM | [11] 22.9 µM | [12] 58.2 µM | [13] 47.9 µM | [14] 27 µM | [15] 39.7 µM
